Assay results taken from PubChem BioAssay (NCI).
“And” between values parts separate entries of the source, which are not always exact repeats. Identical values can stand only once.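 Five concentrations, 48 hours, 96-well plates. GI50 = concentration required for 50% inhibition of growth. TGI marks complete inhibition of growth.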

Test system: MDA-MB-468 breast
Assay: NCI anticancer screen, dose series, 48 h

Row | SMILES | GI50 | TGI
1 | COc1ccc(C(=O)OC2C(OC3C(O)COC(O[C@H]4C[C@H]5[C@@H]6CC=C7C[C@@H](O)CC[C@]7(C)[C@H]6CC[C@]5(C)[C@H]4[C@H](C)C(=O)CCC(C)C)C3OC(=O)C(C)C)OCC(O)C2O)cc1 (stereo partly specified) | 58.3 nM | 3550 nM
2 | CC/C=C\C[C@H](O)C/C=C1/C(=O)C=C[C@@H]1C/C=C\CCCC(=O)OCCS(=O)(=O)c1ccccc1 | 2280 nM | 6830 nM
3 | COc1ccc(Nc2[nH]n(C3=Nc4ccccc4Sc4ccccc43)c(=O)c2C#N)cc1 | 382 nM | 2810 nM
4 | C=C(C)[C@@H]1CC[C@]2(C(=O)N3CCN(C)CC3)CC[C@]3(C)[C@H](CC[C@@H]4[C@@]5(C)C/C(=C/c6ccncc6)[C@H](O)C(C)(C)[C@@H]5CC[C@]43C)[C@@H]12 | 5450 nM | 26100 nM
5 | CCN(CC)c1ccc(CNc2cc(C)nc3ccc(OC)cc23)cc1 | 1020 nM | 2630 nM
6 | CS(=O)(=O)c1nccc(-c2c(-c3cccc(OCc4ccccc4)c3)nc3sccn23)n1 | 1410 nM | 3000 nM
7 | Cc1ccc(C(=O)Nc2ccc(CN3CCN(C)CC3)c(C(F)(F)F)c2)cc1C#Cc1cnc(N)c2ccc(C#N)cc12 | 156 nM | 9630 nM
8 | Cc1cc(NCCCNc2ccnc3cc(Cl)ccc23)nc(Nc2ccc(C(=O)N3CCCCC3)cc2)n1 | 2330 nM | 4690 nM
9 | O=C(Nc1ccc(-n2ccc3c(NC(=O)c4ccccc4)ncnc32)cc1)Nc1ccc(Cl)c(C(F)(F)F)c1 | 1440 nM | 3320 nM
10 | COc1ccccc1CN=C1NC(=O)/C(=C/c2ccc3ncccc3c2)S1 | 3350 nM | > 25000 nM
11 | c1cc2c(cc1NC1=NCCO1)CCCC2 | 6180 nM | 24800 nM
12 | COc1ccc(-c2c(-c3cc4c(c(OC)c3OC)OCO4)noc2N)cc1 | 192 nM | 
13 | COc1ccc(NC(=O)COc2ccccc2)c(C(N)=O)c1 | 453 nM | > 62800 nM
14 | OC1CCN(CCCOc2c3ccccc3nc3c2oc2ccccc23)CC1 | 1760 nM | 4910 nM
15 | COc1ccc2[nH]cc(/C=N/Nc3ccnc4cc(Cl)ccc34)c2c1 | 1130 nM | 2600 nM
16 | COc1ccc2c(c1)O/C(=C\c1ccc([N+](=O)[O-])o1)C2=O | 519 nM | 2260 nM
17 | O=C(/C=C/c1ccccc1)Nc1ncc(Cc2ccccc2)s1 | 416 nM | > 100000 nM
18 | COc1cc(/C=C/C(=O)c2ccc(F)cc2)ccc1OCCCCOc1cc2c(cc1OC)C(=O)N1CCCC1C=N2 (stereo unspecified) | 1710 nM | 3590 nM
19 | Oc1ccccc1/C=N/Nc1nc2ccccc2s1 | 2510 nM | 60700 nM

Row | SMILES | GI50 | TGI
20 | CC[C@]12C=CCN3CC[C@@]4(c5ccc(OC)cc5N(C)[C@H]4[C@@](O)(C(=O)OC)[C@@H]1OC(=O)CCCC[P+](c1ccccc1)(c1ccccc1)c1ccccc1)[C@@H]32 | 195 nM | 575 nM
21 | CC(C)C[C@H](NC(=O)[C@H](Cc1ccccc1)NC(=O)c1cnccn1)B(O)O | < 10 nM and 1.9 nM | < 10 nM and 5.2 nM
22 | OCCNC(=S)Nc1ccc(-c2nc(N3C[C@H]4CC[C@@H](C3)O4)c3cccn3n2)cc1 | 17.4 nM | 289 nM
23 | CCCCCCCC(=O)SCC/C=C/[C@@H]1CC(=O)NCc2cccc(n2)C2=N[C@@](C)(CS2)C(=O)N[C@@H](C(C)C)C(=O)O1 | 107 nM | > 33300 nM
24 | CN(C)c1ccc(/C=N/NC(=O)CSc2nc3sc4c(c3c(=O)n2-c2ccccc2)CCCCC4)cc1 | 3850 nM | > 100000 nM
25 | COc1ccc(/C=C(/C(=O)N2CCN(c3ccc(C)cc3)CC2)c2cc(OC)c(OC)c(OC)c2)cc1N | 224 nM | 
26 | Nc1c(C(=O)c2cccc(C(O)(CO)CO)c2)cnn1-c1ccc(F)cc1 | > 25000 nM | > 25000 nM
27 | COc1cc(-c2nn(-c3ccc(NC(=O)Nc4ccc(Cl)c(C(F)(F)F)c4)cc3)cc2-c2ccncc2)ccc1Cl | 1390 nM | 3230 nM
28 | N#Cc1c(N)n(C2OC(CO)C(O)C2O)c2ncnc(N)c12 (stereo unspecified) | 17.3 nM | 34.9 nM
29 | Cc1ccccc1NC(=O)N/C(N)=N/c1nc(C)c(C)s1 | 224 nM | 788 nM
30 | COc1ccc(C2CC(c3ccc4ccccc4c3)=NN2/C=C2\SC(=S)N(NC(=O)Cc3ccccc3Nc3c(Cl)cccc3Cl)C2=O)cc1 (stereo unspecified) | 544 nM | > 34200 nM
31 | O=c1ncc(I)c[nH]1 | > 100000 nM | > 100000 nM
32 | O=C1C2=C(C(=O)c3c(O)ccc(O)c31)N(c1cccnc1)Cc1ccccc1O2 | 175 nM | 458 nM
33 | Cc1c(C)n(CC(O)CNC2CCCCC2C)c2ccccc12 (stereo unspecified) | 9210 nM | 23000 nM
34 | C/C(=N\NC(=O)c1cccc(S(=O)(=O)N2CCN(C)CC2)c1)c1cc(Cl)ccc1O | 402 nM | 3870 nM
35 | O=c1[nH]ccc2nc(N3CCC(O)CC3)nc(Nc3ccc(N4CCOCC4)cc3)c12 | 43200 nM | > 100000 nM
36 | COc1ccc2nc(-c3ccc(Cl)cc3)cc(-c3nnc(SCC(=O)Nc4ccc(/C(C)=N\O)cc4)o3)c2c1 | 1380 nM | 3580 nM
37 | O=C(NCCN1CCOCC1)Nc1nc2ccc(Sc3nnc4ccc(-c5ccc(F)cc5)nn34)cc2s1 |  | > 29300 nM
